These results are taken from patent US20240246908A1 (ORION CORPORATION, priority 2021, published 2024).

Bounds are passed on as bounds.

The subject of the experiment is YAP-TEAD. In words: TEAD inhibition, Hippo Pathway TEAD Reporter MCF-7 luciferase assay. Particulars: Homo sapiens, MCF7, 24 h, Hippo Pathway TEAD Reporter MCF-7 cells, luciferase activity after 24 h; read-out: IC50 of the test compounds on YAP-TEAD inhibition (Group). The experiment is classed as cell-based. In a few lines:
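IC50 derived from ONE-Glo luciferase luminescence after 24 h compound exposure (11 concentrations in quadruplicate, 0.1% DMSO control). Reporter: MCF-7 line expressing firefly luciferase under TEAD elements, constitutively activated by nuclear YAP1.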
For the compound `CN1C(=O)NC[C@H]1C(=O)Nc1cc(Oc2ccc(C(F)(F)F)cn2)cc2ccoc12` [Compound 216, (S)-3-Methyl-2-oxo-N-(5-((5-(trifluoromethyl)pyridin-2-yl)oxy)benzofuran-7-yl)imidazolidine-4-carboxamide], the concentration for half-maximal inhibition (IC50) is below 50 nM. With `CN1C(=O)NC[C@@H]1C(=O)Nc1cc(Oc2ccc(C(F)(F)F)cn2)cc2ccoc12` [Compound 217, (R)-3-Methyl-2-oxo-N-(5-((5-(trifluoromethyl)pyridin-2-yl)oxy)benzofuran-7-yl)imidazoledine-4-carboxamide] the figure was below 50 nM; with `CN1C(=O)NC[C@H]1C(=O)Nc1cc(Oc2ccc(C(F)(F)F)cn2)cc2c1ncn2C` [Compound 218, (S)-3-Methyl-N-(1-methyl-6-((5-(trifluoromethyl)pyridin-2-yl)oxy)-1H-benzo-[d]imidazol-4-yl)-2-oxoimidazolidine-4-carboxamide], 50 to 300 nM; with `COc1ccc(Oc2ccc(Cl)c(Cl)c2)cc1NC(=O)C1CCC(=O)N1C` (stereo not shown) [Compound 222, N-(5-(3,4-Dichlorophenoxy)-2-methoxyphenyl)-1-methyl-5-oxopyrrolidine-2-carboxamide], below 50 nM. On to `COc1ccc(Oc2ccc(F)c(Cl)c2)cc1NC(=O)C1CCC(=O)N1C` (stereo not shown) [Compound 223, N-(5-(3-Chloro-4-fluorophenoxy)-2-methoxyphenyl)-1-methyl-5-oxo-pyrrolidine-2-carboxamide], for which the 50% inhibitory concentration (IC50) was below 50 nM. Under `CN1C(=O)CCC1C(=O)Nc1cc(Oc2ccc(F)c(F)c2)ccc1-c1nnco1` (stereo not shown) [Compound 224, N-(5-(3,4-Difluorophenoxy)-2-(1,3,4-oxadiazol-2-yl)phenyl)-1-methyl-5-oxopyrrolidine-2-carboxamide] stands 301 to 2000 nM; under `CN1C(=O)CCC1C(=O)Nc1cc(Oc2ccc(C(F)(F)F)cc2)cc2cn[nH]c12` (stereo not shown) [Compound 225, 1-Methyl-5-oxo-N-(5-(4-(trifluoromethyl)phenoxy)-1H-indazol-7-yl)-pyrrolidine-2-carboxamide], 301 to 2000 nM.

Regarding `COc1ccc(Oc2ccc(C(F)(F)F)cc2)cc1NC(=O)[C@@H]1CN(C)C(=O)N1C` [Compound 226, (S)—N-(2-Methoxy-5-(4-(trifluoromethyl)phenoxy)phenyl)-1,3-dimethyl-2-oxoimidazolidine-4-carboxamide], the half-maximal inhibitory concentration (IC50) is below 50 nM.

As to `COc1ccc(Oc2ccc(C(F)(F)F)cc2)cc1NC(=O)[C@H]1CN(C)C(=O)N1C` [Compound 227, (R)—N-(2-Methoxy-5-(4-(trifluoromethyl)phenoxy)phenyl)-1,3-dimethyl-2-oxoimidazolidine-4-carboxamide], the IC50 is below 50 nM. With `COc1ccc(Oc2ccc(C(F)(F)F)cc2)cc1NC(=O)C1CN(C)C(=O)C1O` (stereo not shown) [Compound 228, 4-Hydroxy-N-(2-methoxy-5-(4-(trifluoromethyl)phenoxy)phenyl)-1-methyl-5-oxopyrrolidine-3-carboxamide] the figure was 301 to 2000 nM; with `COc1ccc(Oc2ccc(C(F)(F)F)cc2)cc1NC(=O)C1CCC(=O)N1C(=O)C1CCC(=O)N1` (stereo not shown) [Compound 229, N-(2-Methoxy-5-(4-(trifluoromethyl)phenoxy)phenyl)-5-oxo-1-(5-oxopyrrolidine-2-carbonyl)pyrrolidine-2-carboxamide], below 50 nM; with `COc1ccc(Oc2ccc(C(F)(F)F)cc2)cc1NC(=O)C1CCC(=O)N1C(=O)C1CCC(=O)N1C` (stereo not shown) [Compound 230, N-(2-Methoxy-5-(4-(trifluoromethyl)phenoxy)phenyl)-1-(1-methyl-5-oxo-pyrrolidine-2-carbonyl)-5-oxopyrrolidine-2-carboxamide], below 50 nM. On to `COc1ccc(Oc2ccc(C(F)(F)F)cc2)cc1NC(=O)C1CCC(=O)N1C(=O)C1CC(=O)N1` (stereo not shown) [Compound 231, N-(2-Methoxy-5-(4-(trifluoromethyl)phenoxy)phenyl)-5-oxo-1-(4-oxoazetidine-2-carbonyl)pyrrolidine-2-carboxamide], for which the 50% inhibitory concentration (IC50) is below 50 nM.

The IC50 is the concentration needed to halve the response being measured.
